Patent US20240190880A1 (THE REGENTS OF THE UNIVERSITY OF MICHIGAN, priority 2021, published 2024)

Each molecule was assayed against T1, ER (Homo sapiens, UniProt P03372) (assay: ER degradation activity, in-cell western blot analysis in T47D cells). Conditions: 16 hours, Table A does not say which cell line (T47D or MCF7), read-out: Potency (DC50).
T1 construct: host or cells: T47D and MCF7 human breast cancer cells
T1 sequence (P03372 1-595): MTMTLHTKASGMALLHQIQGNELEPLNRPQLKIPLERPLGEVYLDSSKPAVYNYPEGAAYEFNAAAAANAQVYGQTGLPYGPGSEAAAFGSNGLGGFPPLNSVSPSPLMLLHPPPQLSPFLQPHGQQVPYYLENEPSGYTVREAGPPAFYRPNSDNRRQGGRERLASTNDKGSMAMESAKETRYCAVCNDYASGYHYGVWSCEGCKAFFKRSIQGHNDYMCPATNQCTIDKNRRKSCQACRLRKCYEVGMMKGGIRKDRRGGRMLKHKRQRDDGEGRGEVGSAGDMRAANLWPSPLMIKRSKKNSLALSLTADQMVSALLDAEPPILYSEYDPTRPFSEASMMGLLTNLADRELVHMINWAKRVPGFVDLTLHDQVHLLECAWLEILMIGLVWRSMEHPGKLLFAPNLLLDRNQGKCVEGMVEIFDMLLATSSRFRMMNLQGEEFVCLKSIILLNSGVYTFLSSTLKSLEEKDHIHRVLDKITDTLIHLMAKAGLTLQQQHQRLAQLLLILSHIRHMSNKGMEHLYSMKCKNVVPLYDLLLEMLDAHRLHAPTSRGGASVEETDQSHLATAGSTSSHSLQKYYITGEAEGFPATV
Assay type: cell-based
Method in brief: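 Read-out is near-infrared fluorescence from an in-cell western, expressed as ER percentage relative to untreated and DMSO controls taken as 100%. T47D breast cancer cells received compound for 16 h in 0.5% DMSO.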

| SMILES | DC50 [nM] |
| --- | --- |
| C[C@@H]1Cc2c([nH]c3ccccc23)[C@@H](c2c(F)cc(-c3ccc(C(=O)N4CCC(N5Cc6cc7c(cc6C5)C(=O)N(C5CCC(=O)NC5=O)C7=O)CC4)nc3)cc2F)N1CC(F)F (stereo partly drawn) [E 325, 6-(1-(5-(4-((1R,3R)-2-(2,2-difluoroethyl)-3-methyl-2,3,4,9-tetrahydro-1H-pyrido[3,4-b]indol-1-yl)-3,5-difluorophenyl)picolinoyl)piperidin-4-yl)-2-(2,6-dioxopiperidin-3-yl)-6,7-dihydropyrrolo[3,4-f]isoindole-1,3(2H,5H)-dione] | 10 to 100 |
| O=C1CCC(N2C(=O)c3cc4c(cc3C2=O)CN(C2CCC(C(=O)N3CCCC(Oc5ccc([C@@H]6c7ccc(O)cc7CC[C@@H]6c6ccccc6)cc5)C3)CC2)C4)C(=O)N1 (mixture of isomers) [E 23, Rac-2-(2,6-dioxopiperidin-3-yl)-6-(4-(3-(4-((1R,2S)-6-hydroxy-2-phenyl-1,2,3,4-tetrahydronaphthalen-1-yl)phenoxy)piperidine-1-carbonyl)cyclohexyl)-6,7-dihydropyrrolo[3,4-f]isoindole-1,3(2H,5H)-dione] | 10 to 100 |
| C[C@@H]1Cc2cc(O)ccc2[C@@H](c2c(F)cc(N3CCC4(CCN(C(=O)CN5Cc6cc7c(cc6C5)C(=O)N(C5CCC(=O)NC5=O)C7=O)CC4)CC3)cc2F)N1CC(F)(F)F (stereo partly drawn) [E 225, 6-(2-(9-(3,5-difluoro-4-((1S,3R)-6-hydroxy-3-methyl-2-(2,2,2-trifluoroethyl)-1,2,3,4-tetrahydroisoquinolin-1-yl)phenyl)-3,9-diazaspiro[5.5]undecan-3-yl)-2-oxoethyl)-2-(2,6-dioxopiperidin-3-yl)-6,7-dihydropyrrolo[3,4-f]isoindole-1,3(2H,5H)-dione] | > 100 |
| O=C1CCC(N2C(=O)c3cc4c(cc3C2=O)CN([C@H]2CC[C@H](C(=O)N3CC(Oc5ccc([C@H]6c7ccc(O)cc7CC[C@H]6c6ccccc6)cc5)C3)CC2)C4)C(=O)N1 (stereo partly drawn) [E 385, 2-(2,6-dioxopiperidin-3-yl)-6-((1S,4r)-4-(3-(4-((1S,2R)-6-hydroxy-2-phenyl-1,2,3,4-tetrahydronaphthalen-1-yl)phenoxy)azetidine-1-carbonyl)cyclohexyl)-6,7-dihydropyrrolo[3,4-f]isoindole-1,3(2H,5H)-dione] | < 10 |
| O=C1CCC(N2C(=O)c3cc4c(cc3C2=O)CN(C(=O)[C@H]2CC[C@H](CN3CC(Nc5ccc([C@@H]6c7ccc(O)cc7CC[C@@H]6c6ccccc6)cc5)C3)CC2)C4)C(=O)N1 (stereo partly drawn) [E 363, 2-(2,6-dioxopiperidin-3-yl)-6-((1R,4r)-4-((3-((4-((1R,2S)-6-hydroxy-2-phenyl-1,2,3,4-tetrahydronaphthalen-1-yl)phenyl)amino)azetidin-1-yl)methyl)cyclohexane-1-carbonyl)-6,7-dihydropyrrolo[3,4-f]isoindole-1,3(2H,5H)-dione] | < 10 |
| O=C1CCC(N2C(=O)c3cc4c(cc3C2=O)CN(C(=O)CN2CCC3(CC2)CN(c2ccc([C@@H]5c6ccc(O)cc6CC[C@@H]5c5ccccc5)cc2)C3)C4)C(=O)N1 (mixture of isomers) [E 150, Rac-2-(2,6-dioxopiperidin-3-yl)-6-(2-(2-(4-((1R,2S)-6-hydroxy-2-phenyl-1,2,3,4-tetrahydronaphthalen-1-yl)phenyl)-2,7-diazaspiro[3.5]nonan-7-yl)acetyl)-6,7-dihydropyrrolo[3,4-f]isoindole-1,3(2H,5H)-dione] | > 100 |
| O=C1CCC(N2C(=O)c3cc4c(cc3C2=O)CN(CC(=O)N2CCC3(CC2)CCN(c2ccc([C@@H]5c6ccc(O)cc6CC[C@@H]5c5ccccc5)nn2)CC3)C4)C(=O)N1 (mixture of isomers) [E 306, Rac-2-(2,6-dioxopiperidin-3-yl)-6-(2-(9-(6-((1S,2S)-6-hydroxy-2-phenyl-1,2,3,4-tetrahydronaphthalen-1-yl)pyridazin-3-yl)-3,9-diazaspiro[5.5]undecan-3-yl)-2-oxoethyl)-6,7-dihydropyrrolo[3,4-f]isoindole-1,3(2H,5H)-dione] | > 100 |
| C[C@@H]1CC2(CCN(c3ccc([C@@H]4c5ccc(O)cc5CC[C@@H]4c4ccc(F)cc4)cc3)CC2)CN1CC(=O)N1Cc2cc3c(cc2C1)C(=O)N(C1CCC(=O)NC1=O)C3=O (mixture of isomers) [E 146, Rac-2-(2,6-dioxopiperidin-3-yl)-6-(2-((R)-8-(4-((1R,2S)-2-(4-fluorophenyl)-6-hydroxy-1,2,3,4-tetrahydronaphthalen-1-yl)phenyl)-3-methyl-2,8-diazaspiro[4.5]decan-2-yl)acetyl)-6,7-dihydropyrrolo[3,4-f]isoindole-1,3(2H,5H)-dione] | > 100 |

Next, values leading:

| DC50 [nM] | SMILES |
| --- | --- |
| 10 to 100 | C[C@@H]1Cc2c([nH]c3ccccc23)[C@@H](c2cnc(N3CCC(CN4CCC(N5Cc6cc7c(cc6C5)C(=O)N(C5CCC(=O)NC5=O)C7=O)CC4)CC3)nc2)N1CC(F)F (stereo partly drawn) [E 261, 6-(1-((1-(5-((1R,3R)-2-(2,2-difluoroethyl)-3-methyl-2,3,4,9-tetrahydro-1H-pyrido[3,4-b]indol-1-yl)pyrimidin-2-yl)piperidin-4-yl)methyl)piperidin-4-yl)-2-(2,6-dioxopiperidin-3-yl)-6,7-dihydropyrrolo[3,4-f]isoindole-1,3(2H,5H)-dione] |
| > 100 | C[C@@H]1Cc2cc(O)ccc2[C@@H](c2ccc(N3CCC(C(=O)N4CC(CN5Cc6cc7c(cc6C5)C(=O)N(C5CCC(=O)NC5=O)C7=O)C4)CC3)cc2)N1CC(F)F (stereo partly drawn) [E 350, 6-((1-(1-(4-((1R,3R)-2-(2,2-difluoroethyl)-6-hydroxy-3-methyl-1,2,3,4-tetrahydroisoquinolin-1-yl)phenyl)piperidine-4-carbonyl)azetidin-3-yl)methyl)-2-(2,6-dioxopiperidin-3-yl)-6,7-dihydropyrrolo[3,4-f]isoindole-1,3(2H,5H)-dione] |
| 10 to 100 | O=C1CCC(N2C(=O)c3cc4c(cc3C2=O)CN(CC(=O)N2CCC(N3CC(Oc5ccc([C@@H]6c7ccc(O)cc7CC[C@@H]6c6ccccc6)cc5)C3)CC2)C4)C(=O)N1 (stereo partly drawn) [E 377, 2-(2,6-dioxopiperidin-3-yl)-6-(2-(4-(3-(4-((1R,2S)-6-hydroxy-2-phenyl-1,2,3,4-tetrahydronaphthalen-1-yl)phenoxy)azetidin-1-yl)piperidin-1-yl)-2-oxoethyl)-6,7-dihydropyrrolo[3,4-f]isoindole-1,3(2H,5H)-dione] |
| > 100 | C[C@@H]1Cc2c([nH]c3ccccc23)[C@@H](c2c(F)cc(CN3CCC4(CC3)CC(CN3Cc5cc6c(cc5C3)C(=O)N(C3CCC(=O)NC3=O)C6=O)C4)cc2F)N1CC(F)F (stereo partly drawn) [E 370, 6-((7-(4-((1R,3R)-2-(2,2-difluoroethyl)-3-methyl-2,3,4,9-tetrahydro-1H-pyrido[3,4-b]indol-1-yl)-3,5-difluorobenzyl)-7-azaspiro[3.5]nonan-2-yl)methyl)-2-(2,6-dioxopiperidin-3-yl)-6,7-dihydropyrrolo[3,4-f]isoindole-1,3(2H,5H)-dione] |

Same assay, conditions: compounds 16 hours, Table A does not say whether T47D or MCF7, read-out: Potency (DC50)

| SMILES | DC50 [nM] |
| --- | --- |
| COc1c2c(cc3c1CN(C1CCC(=O)NC1=O)C3=O)CN(CC(=O)N1CC3(CCN(c4cc(F)c([C@@H]5c6ccc7[nH]ncc7c6C[C@@H](C)N5CC(F)F)c(F)c4)CC3)C1)C2 (stereo partly shown) [E 441] | < 10 |
| COc1nc(C2CCC(C(=O)N3CCC(N4Cc5cc6c(cc5C4)C(=O)N(C4CCC(=O)NC4=O)C6=O)CC3)CC2)ccc1[C@@H]1c2[nH]c3ccccc3c2C[C@@H](C)N1CC(F)F (stereo partly drawn) [E 402, 6-(1-(4-(5-((1R,3R)-2-(2,2-difluoroethyl)-3-methyl-2,3,4,9-tetrahydro-1H-pyrido[3,4-b]indol-1-yl)-6-methoxypyridin-2-yl)cyclohexane-1-carbonyl)piperidin-4-yl)-2-(2,6-dioxopiperidin-3-yl)-6,7-dihydropyrrolo[3,4-f]isoindole-1,3(2H,5H)-dione] | > 100 |

Now from value to molecule:

| DC50 [nM] | SMILES |
| --- | --- |
| 10 to 100 | C[C@@H]1Cc2cc(O)ccc2[C@@H](c2c(F)cc(C(=O)N3CC4(CCN(C(=O)CN5Cc6cc7c(cc6C5)C(=O)N(C5CCC(=O)NC5=O)C7=O)CC4)C3)cc2F)N1CC(F)F (stereo partly drawn) [E 457, 6-(2-(2-(4-((1S,3R)-2-(2,2-difluoroethyl)-6-hydroxy-3-methyl-1,2,3,4-tetrahydroisoquinolin-1-yl)-3,5-difluorobenzoyl)-2,7-diazaspiro[3.5]nonan-7-yl)-2-oxoethyl)-2-(2,6-dioxopiperidin-3-yl)-6,7-dihydropyrrolo[3,4-f]isoindole-1,3(2H,5H)-dione] |
| 10 to 100 | C[C@@H]1Cc2c([nH]c3ccccc23)[C@@H](c2cnc(N3CC4(CCC(CN5Cc6cc7c(cc6C5)C(=O)N(C5CCC(=O)NC5=O)C7=O)CC4)C3)nc2)N1CC(F)F (stereo partly drawn) [E 472, 6-((2-(5-((1R,3R)-2-(2,2-difluoroethyl)-3-methyl-2,3,4,9-tetrahydro-1H-pyrido[3,4-b]indol-1-yl)pyrimidin-2-yl)-2-azaspiro[3.5]nonan-7-yl)methyl)-2-(2,6-dioxopiperidin-3-yl)-6,7-dihydropyrrolo[3,4-f]isoindole-1,3(2H,5H)-dione] |
